US5693330A, “Skin care compositions containing melinamide and a retinoid” (priority 1996, dated 1997)
Like-named read-outs stand apart in the source and are kept apart here.

Test system: Human keratinocytes
Assay: 3H-thymidine incorporation by cultured keratinocytes (keratinocyte proliferation)
Type: cell-based
Details: for effect on keratinocyte proliferation (summary): Examples 1-3; for activity at 0.025 µM / activity at 0.1 µM / activity at 0.25 µM / activation at 0.25 µM / activation at 0.025 µM: Homo sapiens, Keratinocyte; for activity at 0.025 µM / activity at 0.1 µM / activity at 0.25 µM: read-out: mean Thymidine incorp/μg protein (% control)
Method: Human keratinocytes, isolated from neonatal foreskin by trypsin treatment were grown in Dulbecco Modification Eagle (DME) Hams F12 (1:1) medium/10% fetal calf serum in the presence of irradiated 3T3 mouse fibroblasts for establishing dividing keratinocyte colonies. Cells were grown under the above condition until their second passage and kept frozen for future use. Frozen second passage keratinocytes were thawed and plated into the above medium and grown for five days before they were switched to a serum-free MCDB 153-based medium keratinocyte growth medium (KGM) from Clonetics Corporation, San Diego, Calif., containing 0.15 mM Ca, or keratinocyte serum-free media (KSFM) from GIBCO containing 0.09 mM Ca). On day 7, when the cells were 80-90% confluent, they were trypsinized and plated in the serum-free medium for the various experiments.
The incorporation of ^3 H-thymidine by cultured keratinocytes was used as an assay of keratinocyte proliferation. Thymidine is one of four deoxynucleosides which are the monomeric units of DNA, the universal library of genetic information in the animal kingdom. Prior to cell division of a somatic cell such as a keratinocyte, the complete genome of the cell undergoing cell division is replicated. This involves large scale DNA synthesis by the cell and enables both daughter cells to receive identical copies of the genetic material. When ^3 H-thymidine is included in the culture media of keratinocytes which are synthesizing DNA in preparation for cell division then the labelled nucleoside is incorporated into the newly synthesized DNA. The extent of incorporation of ^3 H-thymidine into a population of cells is proportional to the rate of DNA synthesis by this population of cells and therefore an indication of their cellular proliferation.
Keratinocytes (that were cultured as described above) were plated in 24 well plates at a density of 40,000 cells per well in 1 ml media. After incubation for four days or until the cells were 60-70% confluent, the media was changed. Test compounds were added (in triplicate) to the wells 24 hours after the media change, and four hours later 1 μCl ^3 H-Thymidine in 50 μl media was added per well. Cells were incubated for a further 24 hours. Media was removed from the cells, 10% ice cold trichloroacetic acid (TCA) added and plates were incubated on ice for 30 minutes. Cells were washed five times with 5% TCA and allowed to dissolve in 500 μl […] NaOH for at least one hour (usually overnight). The preparations were neutralized with 0.1M HCl; 50 μl of the cell preparation was used to determine total protein content. Disintegrations per minute (DPM) from ^3 H labelling of DNA was determined by liquid scintillation counting of […] of the cell preparation. Thymidine incorporation results were expressed as DPM/μg protein.
A. The effect on incorporation of ^3 H-thymidine μg soluble protein 24 hours after the addition of retinoic acid or retinol at various concentrations was examined.
The effect on incorporation of ^3 H-thymidine/μg soluble protein 24 hours after addition of the test compounds was examined and the combined results of three independent experiments were normalized to their respective ethanol controls.
The effect of melinamide and the retinyl ester (retinyl palmitate) on incorporation of ^3 H-thymidine was examined.

[1] = Example 2, 2.5 × 10^-8 M, n = 3, 24 hours, three experiments normalized to ethanol controls
[2] = read-out: increase in keratinocyte thymidine incorporation over the ethanol control

With CC1=C(/C=C/C(C)=C/C=C/C(C)=C/CO)C(C)(C)CCC1 [ROH, Retinol] as the molecule, how does the “mean Thymidine incorp/μg protein ± s.d” value [1] read?
The value was 3956 ± 1303 DPM/μg protein.

What about the “effect on keratinocyte proliferation (summary)” value of the same molecule?
Its value is “completely ineffective at increasing keratinocyte proliferation”.

What about the activity at 0.025 µM (24 h, Example 2, 2.5 × 10^-8 M, n = 3, 24 hours) of the same molecule?
The activity at 0.025 µM was 76%.

With CCCCC/C=C\C/C=C\CCCCCCCC(=O)NC(C)c1ccccc1 (stereo not shown) [Melinamide, melinamide] as the molecule, how does the “effect on keratinocyte proliferation on its own” value (Example 2, 10^-7 M) read?
Its value is “no effect”.

And the “mean Thymidine incorp/μg protein ± s.d” value (Example 2, 10^-7 M, n = 3, 24 hours, three experiments normalized to ethanol controls)?
The value was 4695 ± 324 DPM/μg protein.

And the “effect on keratinocyte proliferation on its own” value (Example 3, 10^-7 M)?
The value was “no effect”.

What about the “mean Thymidine incorp/μg protein ± s.d” value (Example 3, 10^-7 M) of the same molecule?
The value was 4635 ± 608 DPM/μg protein.

What about the “effect on keratinocyte proliferation (summary)” value of the same molecule?
The value was “little or no benefit on its own”.

What about the activity at 0.1 µM (24 h, Example 2, 10^-7 M, n = 3, 24 hours) of the same molecule?
The activity at 0.1 µM was 91%.

And the activity at 0.1 µM (24 h, Example 3, 10^-7 M)?
The activity at 0.1 µM was 84%.

What does the source list for CCCCCCCCCCCCCCCC(=O)OC/C=C(C)/C=C/C=C(C)/C=C/C1=C(C)CCCC1(C)C [Retinyl palmitate, retinyl palmitate]?
mean Thymidine incorp/μg protein ± s.d (Example 3, 2.5 × 10^-7 M): 5746 ± 113 DPM/μg protein; activity at 0.25 µM (24 h, Example 3, 2.5 × 10^-7 M): 104%

Which results are given for CC1=C(/C=C/C(C)=C/C=C/C(C)=C/C(=O)O)C(C)(C)CCC1 [RA, Retinoic acid]?
keratinocyte proliferation over both the ethanol control and each of the retinol treatments (Example 1, 2.5×10^-7 M, 2.5×10^-8 and 2.5×10^-9 M): significantly increased keratinocyte proliferation; mean Thymidine incorp/μg protein ± s.d [1]: 6711 ± 402 DPM/μg protein; mean Thymidine incorp/μg protein ± s.d (Example 3, 2.5 × 10^-7 M): 7795 ± 370 DPM/μg protein; effect on keratinocyte proliferation (summary): increased keratinocyte proliferation; activity at 0.25 µM (24 h, Example 3, 2.5 × 10^-7 M): 142%; activation at 0.25 µM (read-out: increase in keratinocyte thymidine incorporation over the 2.5×10^-7 M retinyl palmitate treatment): 38%; activation at 0.025 µM (read-out: increase in keratinocyte thymidine incorporation over the 2.5×10^-8 M retinol treatment): 30%; activation at 0.025 µM [2]: 30%; activation at 0.25 µM [2]: 38%; activity at 0.025 µM (Example 2, 2.5 × 10^-8 M, n = 3, 24 hours): 130%
